Patent US8153809B2, “Dihydropyridone ureas as P2X7 modulators” (Roche Palo Alto LLC, priority 2008, dated 2012)

These compounds were tested against T1, P2X7 (UniProt Q99572) (assay: pIC50 values for P2X7 (Table 1)).
T1 sequence (Q99572 1-595): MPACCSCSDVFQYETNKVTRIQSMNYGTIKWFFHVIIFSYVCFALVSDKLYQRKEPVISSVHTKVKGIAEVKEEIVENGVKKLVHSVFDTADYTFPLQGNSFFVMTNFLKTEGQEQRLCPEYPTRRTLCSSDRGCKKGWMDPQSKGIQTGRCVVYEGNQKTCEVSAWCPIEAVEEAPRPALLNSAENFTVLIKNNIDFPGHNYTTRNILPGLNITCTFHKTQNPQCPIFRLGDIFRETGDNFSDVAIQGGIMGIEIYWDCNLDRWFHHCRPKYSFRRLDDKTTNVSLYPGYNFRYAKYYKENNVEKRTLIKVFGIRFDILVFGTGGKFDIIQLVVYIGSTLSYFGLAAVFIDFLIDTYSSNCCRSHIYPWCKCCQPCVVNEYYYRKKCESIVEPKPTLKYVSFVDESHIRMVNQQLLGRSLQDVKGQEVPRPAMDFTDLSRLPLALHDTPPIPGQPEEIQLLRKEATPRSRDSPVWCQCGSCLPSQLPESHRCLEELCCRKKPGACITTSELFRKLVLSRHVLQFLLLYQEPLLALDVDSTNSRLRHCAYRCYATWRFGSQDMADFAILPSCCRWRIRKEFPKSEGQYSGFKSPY
Type: cell-based
Description: Intracellular Calcium Flux (FLIPR) Assay
Compound and Reagent Preparation
Stock solutions of compounds were prepared from powders as a 10 mM DMSO stock solution. These solutions were stored at RT during the two week period of these experiments to prevent freeze-thaw of the DMSO stocks. The DMSO stocks were added to the appropriate assay buffer at a concentration of 10 μM, and then diluted serially to the final concentrations that were tested. […] The aqueous solutions of compounds as well as ATP (Sigma A7699) and BzATP (Sigma B6396) were prepared fresh for each day of experiment.
1321N1 cells stably expressing the full length human P2X7 gene (1321N1-hP2X7) and HEK293 cells stably expressing the full length rat P2X7 gene (HEK293-rP2X7) were obtained from the Roche Cell Culture Facility. 1321N1-hP2X7 cells were grown in Dulbecco's Modified Eagle's Medium (DMEM) high glucose supplemented with 10% FBS and 250 μg/mL G418. HEK293-rP2X7 cells were grown in DMEM/F-12 supplemented with 10% FBS, 1 mM CaCl2, 2 mM MgCl2, 2 mM L-Glutamine and 500 μg/ml G418. Cells were split such that they never became >70% confluent.
Intracellular Calcium Flux (FLIPR)
On the day prior to the experiment, 1321N1-hP2X7 or HEK293-rP2X7 cells were released into suspension with calcium-free PBS+Versene and washed by centrifugation with calcium-free PBS to remove the Versene.
On the day of the experiment, plates were washed with FLIPR buffer (calcium- and magnesium-free Hank's Balanced Salt Solution (HBSS) supplemented with 10 mM Hepes, 2.5 mM probenecid and 2 mM calcium chloride) using a BIO-TEK 96 channel plate washer and incubated with […] fluo-3 dye at 37° C. for one hr. The dye was then removed by plate washing and the cells were allowed to equilibrate for 20 min at room temperature with antagonist or vehicle (FLIPR buffer). Agonist (100 μM BzATP final concentration for hP2X7; 5 μM BzATP final concentration or rP2X7) was added online with the FLIPR and fluorescence measurements made at 1 sec intervals for 60 sec followed by 3 sec intervals for a further 4 min (5 min total). A final addition of 5 μM ionomycin was made and the maximal BzATP-evoked fluorescence normalized to the maximal ionomycin-evoked fluorescence.
`COc1cc(NC(=O)N2C=CC(=O)C[C@H]2c2cccc(F)c2)ccc1Cl` [Compound 72, (S)-2-(3-Fluoro-phenyl)-4-oxo-3,4-dihydro-2H-pyridine-1-carboxylic acid (4-chloro-3-methoxy-phenyl)-amide] showed a pIC50 of 6.295.
`COc1cc(NC(=O)N2C=CC(=O)C[C@H]2c2ccc(F)cc2)c(Br)cc1C(=O)OC(C)(C)C` [Compound 55, 5-Bromo-4-{[(S)-2-(4-fluoro-phenyl)-4-oxo-3,4-dihydro-2H-pyridine-1-carbonyl]-amino}-2-methoxy-benzoic acid tert-butyl ester] gave a pIC50 of 5.845.
`C[S@+]([O-])c1cc(NC(=O)N2C=CC(=O)C[C@H]2c2ccc(F)cc2)c(Br)cc1Cl` [Compound 17, (S)-2-(4-Fluoro-phenyl)-4-oxo-3,4-dihydro-2H-pyridine-1-carboxylic acid [2-bromo-4-chloro-5-((S)-methanesulfinyl)-phenyl]-amide] gave a pIC50 of 5.86.
Compound `Cc1cc2nccnc2cc1NC(=O)N1C=CC(=O)C[C@H]1c1ccc(F)cc1` [Compound 107, (S)-2-(4-Fluoro-phenyl)-4-oxo-3,4-dihydro-2H-pyridine-1-carboxylic acid (7-methyl-quinoxalin-6-yl)-amide] has a pIC50 of 7.095.
`COc1ccc(C)c(NC(=O)N2C=CC(=O)C[C@H]2c2cccc(F)c2)c1` [Compound 53, (S)-2-(3-Fluoro-phenyl)-4-oxo-3,4-dihydro-2H-pyridine-1-carboxylic acid (5-methoxy-2-methyl-phenyl)-amide] showed a pIC50 of 8.01.
`CN(C)C(=O)COc1cc(NC(=O)N2C=CC(=O)C[C@H]2c2ccc(F)cc2)c(Br)cc1Cl` [Compound 120, (S)-2-(4-Fluoro-phenyl)-4-oxo-3,4-dihydro-2H-pyridine-1-carboxylic acid (2-bromo-4-chloro-5-dimethylcarbamoylmethoxy-phenyl)-amide] showed a pIC50 of 6.95.
`COc1cccc(NC(=O)N2C=CC(=O)CC2c2ccc(F)cc2)c1` (centres unmarked) [Compound 67, 2-(4-Fluoro-phenyl)-4-oxo-3,4-dihydro-2H-pyridine-1-carboxylic acid (3-methoxy-phenyl)-amide] was tested, and the pIC50 was 6.31.
`O=C1C=CN(C(=O)Nc2cc3c(cc2Br)OCO3)C(c2ccc(F)cc2)C1` (centres unmarked) [Compound 37] gave a pIC50 of 7.457.
For `O=C1C=CN(C(=O)Nc2cc(CO)c(Cl)cc2Br)[C@H](c2ccc(F)cc2)C1` [Compound 98, (S)-2-(4-Fluoro-phenyl)-4-oxo-3,4-dihydro-2H-pyridine-1-carboxylic acid (2-bromo-4-chloro-5-hydroxymethyl-phenyl)-amide], the pIC50 was 7.475.
In the case of `COC(=O)COc1cc(N(CC(=O)OC)C(=O)N2C=CC(=O)C[C@H]2c2ccc(F)cc2)c(Br)cc1Cl` [Compound 31, (4-Bromo-2-chloro-5-{[(S)-2-(4-fluoro-phenyl)-4-oxo-3,4-dihydro-2H-pyridine-1-carbonyl]-methoxycarbonylmethyl-amino}-phenoxy)-acetic acid methyl ester], the pIC50 is reported as 5.27.
In the case of `Cc1cc(Cl)c(OCCO)cc1NC(=O)N1C=CC(=O)C[C@H]1c1ccc(F)cc1` [Compound 92, (S)-2-(4-Fluoro-phenyl)-4-oxo-3,4-dihydro-2H-pyridine-1-carboxylic acid [4-chloro-5-(2-hydroxy-ethoxy)-2-methyl-phenyl]-amide], the pIC50 is reported as 8.023.
`COC(=O)COc1cc(NC(=O)N2C=CC(=O)C[C@H]2c2ccc(F)cc2)c(Br)cc1Cl` [Compound 30, (4-Bromo-2-chloro-5-{[(S)-2-(4-fluoro-phenyl)-4-oxo-3,4-dihydro-2H-pyridine-1-carbonyl]-amino}-phenoxy)-acetic acid methyl ester] gave a pIC50 of 6.7.
`COc1cc(NC(=O)N2C=CC(=O)CC2c2ccccc2F)c(Br)cc1C` (centres unmarked) [Compound 41, 2-(2-Fluoro-phenyl)-4-oxo-3,4-dihydro-2H-pyridine-1-carboxylic acid (2-bromo-5-methoxy-4-methyl-phenyl)-amide] gave a pIC50 of 6.43.
In the case of `CC(=O)NCc1cc(NC(=O)N2C=CC(=O)C[C@H]2c2ccc(F)cc2)c(C)cc1Cl` [Compound 124, (S)-2-(4-Fluoro-phenyl)-4-oxo-3,4-dihydro-2H-pyridine-1-carboxylic acid [5-(acetylamino-methyl)-4-chloro-2-methyl-phenyl]-amide], the pIC50 is reported as 6.98.
`Cc1ccc(NC(=O)N2C=CC(=O)C[C@H]2c2ccc(F)cc2)c(C)c1` [Compound 103, (S)-2-(4-Fluoro-phenyl)-4-oxo-3,4-dihydro-2H-pyridine-1-carboxylic acid (2,4-dimethyl-phenyl)-amide] was tested, and the pIC50 was 7.415.
`COc1cc(NC(=O)N2C=CC(=O)C[C@H]2c2cc(F)cc(F)c2)c(Br)cc1C` [Compound 78, (S)-2-(3,5-Difluoro-phenyl)-4-oxo-3,4-dihydro-2H-pyridine-1-carboxylic acid (2-bromo-5-methoxy-4-methyl-phenyl)-amide] was tested, and the pIC50 was 7.675.
`Cc1cc(F)c(OCCO)cc1NC(=O)N1C=CC(=O)C[C@H]1c1ccc(F)cc1` [Compound 111, (S)-2-(4-Fluoro-phenyl)-4-oxo-3,4-dihydro-2H-pyridine-1-carboxylic acid [4-fluoro-5-(2-hydroxy-ethoxy)-2-methyl-phenyl]-amide] gave a pIC50 of 8.12.
With `O=C1C=CN(C(=O)Nc2cccc3ncccc23)[C@H](c2ccc(F)cc2)C1` [Compound 154, (S)-2-(4-Fluoro-phenyl)-4-oxo-3,4-dihydro-2H-pyridine-1-carboxylic acid quinolin-5-ylamide] the pIC50 was 8.64.
`COc1ccc(NC(=O)N2C=CC(=O)CC2c2ccc(F)cc2)c(OC)c1` (centres unmarked) [Compound 69, 2-(4-Fluoro-phenyl)-4-oxo-3,4-dihydro-2H-pyridine-1-carboxylic acid (2,4-dimethoxy-phenyl)-amide] was tested, and the pIC50 was 6.07.
For `C[S@@+]([O-])c1cc(NC(=O)N2C=CC(=O)C[C@H]2c2ccc(F)cc2)c(Br)cc1Cl` [Compound 16, (S)-2-(4-Fluoro-phenyl)-4-oxo-3,4-dihydro-2H-pyridine-1-carboxylic acid [2-bromo-4-chloro-5-((R)-methanesulfinyl)-phenyl]-amide], the pIC50 was 6.623.
Work on `O=C1C=CN(C(=O)Nc2cc3c(cc2Br)OCCO3)[C@H](c2ccc(F)cc2)C1` [Compound 136, (S)-2-(4-Fluoro-phenyl)-4-oxo-3,4-dihydro-2H-pyridine-1-carboxylic acid (7-bromo-2,3-dihydro-benzo[1,4]dioxin-6-yl)-amide] yielded a pIC50 of 8.095.
`COc1cc(NC(=O)N2C=CC(=O)CC2c2cccnc2)c(Br)cc1C` (centres unmarked) [Compound 20, 4-Oxo-3,4-dihydro-2H-[2,3′]bipyridinyl-1-carboxylic acid (2-bromo-5-methoxy-4-methyl-phenyl)-amide] gave a pIC50 of 5.995.
Compound `COC(=O)c1cc(Br)c(NC(=O)N2C=CC(=O)C[C@H]2c2cccc(F)c2)cc1OC` [Compound 39, 5-Bromo-4-{[(S)-2-(3-fluoro-phenyl)-4-oxo-3,4-dihydro-2H-pyridine-1-carbonyl]-amino}-2-methoxy-benzoic acid methyl ester] has a pIC50 of 7.06.
Work on `Cc1ccc(S(=O)(=O)n2nc(C)c3cc(Br)c(NC(=O)N4C=CC(=O)C[C@H]4c4ccc(F)cc4)cc32)cc1` [Compound 23, (S)-2-(4-Fluoro-phenyl)-4-oxo-3,4-dihydro-2H-pyridine-1-carboxylic acid [5-bromo-3-methyl-1-(toluene-4-sulfonyl)-1H-indazol-6-yl]-amide] yielded a pIC50 of 5.245.
`O=C1C=CN(C(=O)Nc2c(F)cc(F)cc2Br)C(c2ccc(F)cc2)C1` (centres unmarked) [Compound 85, 2-(4-Fluoro-phenyl)-4-oxo-3,4-dihydro-2H-pyridine-1-carboxylic acid (2-bromo-4,6-difluoro-phenyl)-amide] was tested, and the pIC50 was 5.
Work on `CS(=O)(=O)c1cc(NC(=O)N2C=CC(=O)C[C@H]2c2ccc(F)cc2)c(Br)cc1Cl` [Compound 15, (S)-2-(4-Fluoro-phenyl)-4-oxo-3,4-dihydro-2H-pyridine-1-carboxylic acid (2-bromo-4-chloro-5-methanesulfonyl-phenyl)-amide] yielded a pIC50 of 5.94.
